Active and inactive are the calls of the source. No cut-off for these calls is given here.
Columns and labels:
MGC-803 [1] = assay: Induction of mitochondrial membrane potential loss in human MGC-803 cells at 1.25 uM measured after 24 hrs by JC-1 staining based flow cytometry method (reference value: 0.344%); conditions: Mitochondria
MGC-803 [2] = assay: Induction of apoptosis in human MGC-803 cells assessed as necrotic cells at 10 uM measure after 24 hrs by Annexin-PI staining based Flowcytometry method (reference value: 3.13%); format: functional
SGC-7901 [3] = assay: Induction of apoptosis in human SGC-7901 cells assessed as viable cells at 10 uM measure after 24 hrs by Annexin-PI staining based Flowcytometry method (reference value: 94.9%); format: functional; conditions: read-out: Activity
SGC-7901 [4] = assay: Induction of apoptosis in human SGC-7901 cells assessed as early apoptotic cells at 1.25 uM measure after 24 hrs by Annexin-PI staining based Flowcytometry method (reference value: 2.68%); format: functional
MGC-803 [5] = assay: Induction of apoptosis in human MGC-803 cells assessed as increase in accumulation of LC3B-2 measured after 24 hrs by western blot assay; format: functional, cell-based
SGC-7901 [6] = assay: Induction of apoptosis in human SGC-7901 cells assessed as early apoptotic cells at 0.625 uM measure after 24 hrs by Annexin-PI staining based Flowcytometry method (reference value: 2.68%); format: functional
MGC-803 [7] = assay: Induction of apoptosis in human MGC-803 cells assessed as late apoptotic cells at 0.625 uM measure after 24 hrs by Annexin-PI staining based Flowcytometry method (reference value: 7.06%); format: functional
GES1 = assay: Cytotoxicity against human GES1 cells assessed as inhibition of cell growth at measured after 72 hrs by SRB assay; format: cell-based; conditions: ges1, 72 h
MGC-803 [8] = assay: Induction of mitochondrial membrane potential loss in human MGC-803 cells at 2.5 uM measured after 24 hrs by fluorescence method; conditions: Mitochondria
MGC-803 [9] = assay: Induction of apoptosis in human MGC-803 cells assessed as necrotic cells at 5 uM measure after 24 hrs by Annexin-PI staining based Flowcytometry method (reference value: 3.13%); format: functional
SGC-7901 [10] = assay: Induction of apoptosis in human SGC-7901 cells assessed as late apoptotic cells at 0.625 uM measure after 24 hrs by Annexin-PI staining based Flowcytometry method (reference value: 1.29%); format: functional
MGC-803 [11] = assay: Induction of apoptosis in human MGC-803 cells assessed as accumulation of cleaved caspase 9 protein at 0.625 to 10 uM measured after 24 hrs by western blot assay; format: functional, cell-based; conditions: dose 0.625-10 µM
MGC-803 [12] = assay: Induction of apoptosis in human MGC-803 cells assessed as necrotic cells at 0.625 uM measure after 24 hrs by Annexin-PI staining based Flowcytometry method (reference value: 3.13%); format: functional
SGC-7901 [13] = assay: Induction of apoptosis in human SGC-7901 cells assessed as early apoptotic cells at 5 uM measure after 24 hrs by Annexin-PI staining based Flowcytometry method (reference value: 2.68%); format: functional
MGC-803 [14] = assay: Induction of mitochondrial membrane potential loss in human MGC-803 cells at 5 uM measured after 24 hrs by JC-1 staining based flow cytometry method (reference value: 0.344%); conditions: Mitochondria
MGC-803 [15] = assay: Cytotoxicity against human MGC-803 cells assessed as inhibition of cell viability incubated for 1 hr with Z-LEHD-FMK followed by addition of compound; format: functional, cell-based
SGC-7901 [16] = assay: Induction of apoptosis in human SGC-7901 cells assessed as necrotic cells at 1.25 uM measure after 24 hrs by Annexin-PI staining based Flowcytometry method (reference value: 1.16%); format: functional
SGC-7901 [17] = assay: Inhibition of cell proliferation in human SGC-7901 cells at 5 uM measured after 72 hrs by SRB assay; format: functional, cell-based
MGC-803 [18] = assay: Antiproliferative activity in human MGC-803 cells assessed as cell viability preincubated with chloroquine followed by compound addition measured after 24 hrs by SRB staining method; format: functional, cell-based
MGC-803 [19] = assay: Induction of apoptosis in human MGC-803 cells assessed as early apoptotic cells at 0.625 uM measure after 24 hrs by Annexin-PI staining based Flowcytometry method (reference value: 9.8%); format: functional
MGC-803 [20] = assay: Induction of apoptosis in human MGC-803 cells assessed as viable cells at 2.5 uM measure after 24 hrs by Annexin-PI staining based Flowcytometry method (reference value: 80%); format: functional; conditions: read-out: Activity
MGC-803 [21] = assay: Induction of apoptosis in human MGC-803 cells assessed as late apoptotic cells at 2.5 uM measure after 24 hrs by Annexin-PI staining based Flowcytometry method (reference value: 7.06%); format: functional
MGC-803 [22] = assay: Induction of morphological changes in human MGC-803 cells assessed as cell shrinkage at 5 uM incubated for 1 hrs by bright field microscopic analysis; format: functional, cell-based
MGC-803 [23] = assay: Cell cycle arrest in human MGC-803 cells assessed as accumulation of cells in G2/M phase at 5 uM measured after 24 hrs by PI staining based flow cytometry; format: functional
SGC-7901 [24] = assay: Antiproliferative activity against human SGC-7901 cells assessed as inhibition of cell growth at measured after 72 hrs by SRB assay; format: functional
MGC-803 [25] = assay: Antiproliferative activity against human MGC-803 cells assessed as inhibition of cell growth at 10 uM measured after 72 hrs by SRB assay relative to control; format: functional
MGC-803 [26] = assay: Inhibition of cell proliferation in human MGC-803 cells at 2.5 uM measured after 72 hrs by SRB assay; format: functional, cell-based
MGC-803 [27] = assay: Cytotoxicity against human MGC-803 cells assessed as inhibition of cell viability incubated for 1 hr with Z-VAD-FMK followed by addition of compound; format: functional, cell-based
MGC-803 [28] = assay: Induction of apoptosis in human MGC-803 assessed by cleaved PARP levels incubated for 1 hr with Z-VAD-FMK followed by compound addition measured by western blot assay; format: functional, cell-based
MGC-803 [29] = assay: Induction of apoptosis in human MGC-803 cells assessed as necrotic cells at 2.5 uM measure after 24 hrs by Annexin-PI staining based Flowcytometry method (reference value: 3.13%); format: functional
SGC-7901 [30] = assay: Induction of apoptosis in human SGC-7901 cells assessed as viable cells at 0.625 uM measure after 24 hrs by Annexin-PI staining based Flowcytometry method (reference value: 94.9%); format: functional; conditions: read-out: Activity
SGC-7901 [31] = assay: Induction of apoptosis in human SGC-7901 cells assessed as viable cells at 2.5 uM measure after 24 hrs by Annexin-PI staining based Flowcytometry method (reference value: 94.9%); format: functional; conditions: read-out: Activity
MGC-803 [32] = assay: Induction of apoptosis in human MGC-803 cells assessed as increase in accumulation of LC3B-2 preincubated with Chloroquine measured after 24 hrs by western blot assay; format: functional, cell-based
MGC-803 [33] = assay: Induction of apoptosis in human MGC-803 cells assessed as late apoptotic cells at 10 uM measure after 24 hrs by Annexin-PI staining based Flowcytometry method (reference value: 7.06%); format: functional
MGC-803 [34] = assay: Induction of apoptosis in human MGC-803 cells assessed as early apoptotic cells at 1.25 uM measure after 24 hrs by Annexin-PI staining based Flowcytometry method (reference value: 9.8%); format: functional
MGC-803 [35] = assay: Induction of mitochondrial membrane potential loss in human MGC-803 cells at 10 uM measured after 24 hrs by JC-1 staining based flow cytometry method (reference value: 0.344%); conditions: Mitochondria

- Activity (MGC-803 [1]): 10.1%
- Activity (MGC-803 [8]): Active
- Activity (MGC-803 [14]): 3.13%
- GI50 (SGC-7901 [24]): 640 nM
- Activity (MGC-803 [35]): 10.7%
Structure (SMILES): Cc1cc(Nc2ccc(C(=O)/C=C/c3cccc(Br)n3)cc2)n2nc(SCc3nc4ccccc4[nH]3)nc2n1
- Activity (MGC-803 [2]): 8.84%
- viability at 10 µM (SGC-7901 [3]): 23.9%
- Activity (SGC-7901 [4]): 1.59%
- Activity (MGC-803 [5]): Active
- Activity (SGC-7901 [6]): 2.25%
- Activity (MGC-803 [7]): 1.81%
- Activity (GES1): Non-Toxic
- Activity (MGC-803 [9]): 4.51%
- Activity (SGC-7901 [10]): 1.55%
- Activity (MGC-803 [11]): Active
- Activity (MGC-803 [12]): 1.72%
- Activity (SGC-7901 [13]): 16.7%
- inhibition (MGC-803 [15]): inactive
- Activity (SGC-7901 [16]): 2.24%
- inhibition (SGC-7901 [17]): Active
- inhibition (MGC-803 [18]): inactive
- Activity (MGC-803 [19]): 4.92%
- viability at 2.5 µM (MGC-803 [20]): 86.4%
- Activity (MGC-803 [21]): 4.7%
- Activity (MGC-803 [22]): Active
- Activity (MGC-803 [23]): Active
- inhibition at 10 µM (MGC-803 [25]): 94.4%
- inhibition (MGC-803 [26]): inactive
- inhibition (MGC-803 [27]): inactive
- Activity (MGC-803 [28]): inactive
- Activity (MGC-803 [29]): 1.75%
- viability at 0.625 µM (SGC-7901 [30]): 94.2%
- viability at 2.5 µM (SGC-7901 [31]): 88.3%
- Activity (MGC-803 [32]): Active
- Activity (MGC-803 [33]): 36.4%
- Activity (MGC-803 [34]): 7.21%

Reference: ChEMBL document CHEMBL4706515, “Discovery of new [1,2,4] Triazolo[1,5-a]Pyrimidine derivatives that Kill gastric cancer cells via the mitochondria pathway” (Eur J Med Chem, 2020)
